Laboratory results: the supplement of paper PMC10307832

How the values were obtained:
Assay in all cases: relative viability (nuclei count vs DMSO), 5 days (fraction); higher = more cells survive
[1] = compound: C1=CC=C(C(=C1)C2=CC=C(C=C2)C3=CSC4=C3C(=C(C(=O)N4)C#N)O)O + Cc1cc(Nc2cc(N3CCN(C)CC3)nc(Sc3ccc(NC(=O)C4CC4)cc3)n2)n[nH]1 [Tozasertib] (partner 0.1 µM)
Summary of the method: (§1)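 One day after seeding in 1536-well plates, lung cancer cell lines were dosed by pin tool. Dosing was either single-drug or a fixed anchor-drug dose plus five library-drug doses (not always all listed) in √10 steps. After 5 days, nuclei were stained in one fix-and-stain step and counted on 4× images, and relative viability is the nuclei count of treated wells over that of vehicle wells, given as the median of duplicate plates.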

[2] = compound: CC1=CN2C(=O)C=C(N=C2C(=C1)C(C)NC3=CC=CC=C3)N4CCOCC4 [TGX 221] + CCNC(=O)c1noc(-c2cc(C(C)C)c(O)cc2O)c1-c1ccc(CN2CCOCC2)cc1 [Luminespib] (partner 0.01 µM)
Summary of the method: as §1

[3] = compound: CC1=CN2C(=O)C=C(N=C2C(=C1)C(C)NC3=CC=CC=C3)N4CCOCC4 [TGX 221] + Cc1cc(Nc2cc(N3CCN(C)CC3)nc(Sc3ccc(NC(=O)C4CC4)cc3)n2)n[nH]1 [Tozasertib] (partner 0.1 µM)
Summary of the method: as §1

[4] = compound: O=C(CCCCCCNC(=O)c1cnc(N(c2ccccc2)c2ccccc2)nc1)NO [Ricolinostat] + NC(=O)Nc1cc(-c2cccc(F)c2)sc1C(=O)N[C@H]1CCCNC1 [AZD7762] (partner 0.2 µM)
Summary of the method: as §1

| Cell Line | relative viability ([1]; first compound 0.08 µM) | relative viability ([1]; first compound 0.253 µM) | relative viability ([1]; first compound 0.8 µM) | relative viability ([1]; first compound 2.53 µM) | relative viability ([1]; first compound 8 µM) | relative viability ([2]; first compound 0.08 µM) | relative viability ([2]; first compound 0.253 µM) | relative viability ([2]; first compound 0.8 µM) | relative viability ([2]; first compound 2.53 µM) | relative viability ([2]; first compound 8 µM) | relative viability ([3]; first compound 0.08 µM) | relative viability ([3]; first compound 0.253 µM) | relative viability ([3]; first compound 0.8 µM) | relative viability ([3]; first compound 2.53 µM) | relative viability ([3]; first compound 8 µM) | relative viability ([4]; first compound 0.08 µM) | relative viability ([4]; first compound 0.253 µM) | relative viability ([4]; first compound 0.8 µM) | relative viability ([4]; first compound 2.53 µM) |
| --- | --- | --- | --- | --- | --- | --- | --- | --- | --- | --- | --- | --- | --- | --- | --- | --- | --- | --- | --- |
| NCI-H2009 | 0.789 | 0.706 | 0.719 | 0.73 | 0.683 | 1.05 | 1.02 | 1.09 | 1.02 | 0.665 | 0.739 | 0.714 | 0.73 | 0.631 | 0.436 |  |  |  |  |
| H3255 | 1.04 | 0.727 | 0.213 | 0.868 | 0.559 | 0.784 | 0.937 | 0.918 | 0.981 | 0.887 | 0.449 | 0.529 | 0.692 | 0.563 | 0.613 | 0.717 | 0.759 | 0.75 | 0.849 |
| EPLC-272H | 0.223 | 0.194 | 0.227 | 0.22 | 0.247 | 0.346 | 0.419 | 0.388 | 0.28 | 0.177 | 0.187 | 0.275 | 0.282 | 0.186 | 0.138 |  | 0.194 | 0.178 | 0.141 |
| NCI-H1734 | 0.266 | 0.238 | 0.279 | 0.288 | 0.216 | 0.232 | 0.178 | 0.202 | 0.17 | 0.18 | 0.247 | 0.247 | 0.263 | 0.263 | 0.271 | 0.45 | 0.68 | 0.372 | 0.235 |
| NCI-H2087 | 0.213 | 0.258 | 0.225 | 0.244 | 0.2 | 0.118 | 0.16 | 0.151 | 0.15 | 0.166 | 0.254 | 0.269 | 0.231 | 0.217 | 0.233 | 1.24 | 1.27 | 1.07 | 0.973 |
| NCI-H1623 | 0.408 | 0.53 | 0.397 | 0.457 | 0.436 | 0.427 | 0.457 | 0.471 | 0.463 | 0.438 | 0.446 | 0.404 | 0.472 | 0.466 | 0.419 |  |  |  |  |
| NCI-H520 | 0.409 | 0.417 | 0.432 | 0.367 | 0.441 | 0.23 | 0.196 | 0.188 | 0.205 | 0.211 | 0.469 | 0.385 | 0.382 | 0.304 | 0.303 |  |  |  |  |
| HCC-366 | 0.139 | 0.137 | 0.14 | 0.124 | 0.0974 |  |  |  |  |  | 0.0834 | 0.113 | 0.283 | 0.0517 | 0.0636 | 0.266 | 0.27 | 0.264 | 0.172 |
| NCI-H2023 | 0.257 | 0.38 | 0.38 | 0.476 | 0.439 | 0.711 | 0.555 | 0.685 | 0.603 | 0.386 | 0.332 | 0.297 | 0.397 | 0.302 | 0.145 |  |  |  |  |
| SK-LU-1 | 0.319 | 0.265 | 0.293 | 0.379 | 0.306 | 0.189 | 0.191 | 0.201 | 0.205 | 0.181 | 0.346 | 0.356 | 0.321 | 0.343 | 0.308 |  |  |  |  |
| SK-MES-1 | 0.842 | 1.07 | 0.942 | 1.01 | 0.923 | 0.664 | 0.721 | 0.639 | 0.324 | 0.229 | 0.897 | 0.992 | 0.916 | 0.957 | 0.796 |  |  |  |  |
| NCI-H1703 |  |  |  |  |  |  |  |  |  |  |  |  |  |  |  |  | 0.132 |  | 0.11 |
| COR-L 105 | 0.386 | 0.341 | 0.358 | 0.383 | 0.379 | 0.952 | 0.792 | 0.663 | 0.654 | 0.579 | 0.412 | 0.418 | 0.309 | 0.395 | 0.323 |  |  |  |  |
| SW 1573 | 0.175 | 0.205 | 0.203 | 0.152 | 0.199 | 0.211 | 0.353 | 0.247 | 0.221 | 0.278 | 0.175 | 0.208 | 0.211 | 0.165 | 0.207 |  |  |  |  |
| NCI-H1650 | 0.325 | 0.386 | 0.417 | 0.442 | 0.486 | 0.197 | 0.191 | 0.201 | 0.169 | 0.185 | 0.399 | 0.412 | 0.381 | 0.297 | 0.235 |  |  |  |  |
| NCI-H1648 | 0.503 |  | 0.413 | 0.6 | 0.392 |  |  |  |  |  | 0.422 |  | 0.563 | 0.406 | 0.45 |  | 0.651 | 0.524 | 0.494 |
| NCI-H2228 | 0.288 | 0.244 | 0.245 | 0.297 | 0.277 | 0.123 | 0.146 | 0.108 | 0.136 | 0.153 | 0.251 | 0.262 | 0.261 | 0.215 | 0.167 |  |  |  |  |
| NCI-H661 | 0.359 | 0.386 | 0.357 | 0.356 | 0.369 | 0.906 | 0.919 | 0.899 | 0.956 | 0.939 | 0.348 | 0.371 | 0.392 | 0.358 | 0.373 |  |  |  |  |
